Residues, ends and D or L forms follow the SMILES beside them. *: point of attachment. Cbz = O=C(OCc1ccccc1)*; CH2F = FC*
What was measured:
Assay type in all cases: functional
[1] = tested on: Hep 3B2; assay: Induction of apoptosis in human Hep3B cells assessed as viable cells at 10 nM measured after 48 hrs by annexin V-FITC/Propidium iodide staining based flow cytometric analysis (reference value: 95.6%); conditions: read-out: Activity
[2] = tested on: Hep 3B2; assay: Induction of apoptosis in human Hep3B cells assessed as early apoptotic cells at 10 nM measured after 48 hrs by annexin V-FITC/Propidium iodide staining based flow cytometric analysis (reference value: 1.6%)
[3] = tested on: Hep 3B2; assay: Induction of apoptosis in human Hep3B cells assessed as late apoptotic cells at 10 nM measured after 48 hrs by annexin V-FITC/Propidium iodide staining based flow cytometric analysis (reference value: 2.4%)
[4] = tested on: Hep 3B2; assay: Induction of apoptosis in human Hep3B cells assessed as necrotic cells at 10 nM measured after 48 hrs by annexin V-FITC/Propidium iodide staining based flow cytometric analysis (reference value: 0.3%)
[5] = tested on: Hep 3B2; assay: Induction of apoptosis in human Hep3B cells assessed as viable cells at 10 nM measured after 48 hrs in presence of gamabufotalin by annexin V-FITC/Propidium iodide staining based flow cytometric analysis (reference value: 95.6%); conditions: read-out: Activity
[6] = tested on: Hep 3B2; assay: Induction of apoptosis in human Hep3B cells assessed as early apoptotic cells at 10 nM measured after 48 hrs in presence of gamabufotalin by annexin V-FITC/Propidium iodide staining based flow cytometric analysis (reference value: 1.6%)
[7] = tested on: Hep 3B2; assay: Induction of apoptosis in human Hep3B cells assessed as late apoptotic cells at 10 nM measured after 48 hrs in presence of gamabufotalin by annexin V-FITC/Propidium iodide staining based flow cytometric analysis (reference value: 2.4%)
[8] = tested on: Hep 3B2; assay: Induction of apoptosis in human Hep3B cells assessed as necrotic cells at 10 nM measured after 48 hrs in presence of gamabufotalin by annexin V-FITC/Propidium iodide staining based flow cytometric analysis (reference value: 0.3%)
[9] = tested on: Huh-7; assay: Induction of apoptosis in human Huh-7 cells assessed as viable cells at 10 nM measured after 48 hrs by annexin V-FITC/Propidium iodide staining based flow cytometric analysis (reference value: 91.7%); conditions: read-out: Activity
[10] = tested on: Huh-7; assay: Induction of apoptosis in human Huh-7 cells assessed as early apoptotic cells at 10 nM measured after 48 hrs by annexin V-FITC/Propidium iodide staining based flow cytometric analysis (reference value: 2.2%)
[11] = tested on: Huh-7; assay: Induction of apoptosis in human Huh-7 cells assessed as late apoptotic cells at 10 nM measured after 48 hrs by annexin V-FITC/Propidium iodide staining based flow cytometric analysis (reference value: 6.1%)
[12] = tested on: Huh-7; assay: Induction of apoptosis in human Huh-7 cells assessed as necrotic cells at 10 nM measured after 48 hrs by annexin V-FITC/Propidium iodide staining based flow cytometric analysis (reference value: 0.0%)
[13] = tested on: Huh-7; assay: Induction of apoptosis in human Huh-7 cells assessed as viable cells at 10 nM measured after 48 hrs in presence of gamabufotalin by annexin V-FITC/Propidium iodide staining based flow cytometric analysis (reference value: 91.7%); conditions: read-out: Activity
[14] = tested on: Huh-7; assay: Induction of apoptosis in human Huh-7 cells assessed as early apoptotic cells at 10 nM measured after 48 hrs in presence of gamabufotalin by annexin V-FITC/Propidium iodide staining based flow cytometric analysis (Rvb =2.2%)
[15] = tested on: Huh-7; assay: Induction of apoptosis in human Huh-7 cells assessed as late apoptotic cells at 10 nM measured after 48 hrs in presence of gamabufotalin by annexin V-FITC/Propidium iodide staining based flow cytometric analysis (reference value: 6.1%)
[16] = tested on: Huh-7; assay: Induction of apoptosis in human Huh-7 cells assessed as necrotic cells at 10 nM measured after 48 hrs in presence of gamabufotalin by annexin V-FITC/Propidium iodide staining based flow cytometric analysis (reference value: 0.0%)

## CC(C)[C@H](NC(=O)OCc1ccccc1)C(=O)N[C@@H](C)C(=O)N[C@@H](CC(=O)O)C(=O)CF (Cbz-Val-Ala-Asp-CH2F)
[1]
  viability at 0.01 µM: 93.5%
[2]
  Activity: 2.6%
[3]
  Activity: 3.6%
[4]
  Activity: 0.3%
[5]
  viability at 0.01 µM: 91.9%
[6]
  Activity: 4.4%
[7]
  Activity: 3.5%
[8]
  Activity: 0.3%
[9]
  viability at 0.01 µM: 90.3%
[10]
  Activity: 2.7%
[11]
  Activity: 6.9%
[12]
  Activity: 0.1%
[13]
  viability at 0.01 µM: 89%
[14]
  Activity: 3.3%
[15]
  Activity: 7.4%
[16]
  Activity: 0.3%
